In US12162893B2 (Erasca, Inc., priority 2020, dated 2024):

Biological target: T1, mutant G12C K-RAS (Homo sapiens, UniProt P01116, G12C)
T1 construct: made in house; host or cells: E. coli BL21
Experiment: covalent adduct formation (CAF) with mutant G12C K-RAS
Format: binding
Conditions: Table 6; 10 μM, 1 h
Protocol: Embodiments disclosed herein are further illustrated by the following examples in Tables 1-4 and the Examples hereinbelow. The Tables indicate the compound number, structure, the observed mass spectral molecular weight peak, and covalent adduct formation (CAF) with a mutant G12C K-RAS after 60 minutes at a concentration of 10 micromolar.

SMILES	% CAF @ 10 μM,1 h [%]
C=CC(=O)N1C[C@H](C)N(c2nc(=O)n3c4c(c(-c5ccc(F)cc5F)c(Cl)cc24)OC[C@H]3CCCN2CC(C(=O)NC3CC3)C2)C[C@H]1C [Example 273, 1-(3-((3R)-7-((2S,5R)-4-acryloyl-2,5-dimethylpiperazin-1-yl)-9-chloro-10-(2,4-difluorophenyl)-5-oxo-2,3-dihydro-5H-[1,4]oxazino[2,3,4-ij]quinazolin-3-yl)propyl)-N-cyclopropylazetidine-3-carboxamide]	71.8
C=CC(=O)N1C[C@H](C)N(c2nc(=O)n3c4c(c(-c5ccc(F)cc5F)c(Cl)cc24)OC[C@@H]3CN2CCN(C)CC2=O)C[C@H]1C [Example 274, (3S)-7-((2S,5R)-4-acryloyl-2,5-dimethylpiperazin-1-yl)-9-chloro-10-(2,4-difluorophenyl)-3-((4-methyl-2-oxopiperazin-1-yl)methyl)-2,3-dihydro-5H-[1,4]oxazino[2,3,4-ij]quinazolin-5-one]	67
C=CC(=O)N1CCN(c2nc(=O)n3c4c(c(-c5ccc(F)cc5F)c(Cl)cc24)OCC3)[C@@H](C)C1 [Example 275, 7-((S)-4-acryloyl-2-methylpiperazin-1-yl)-9 chloro-10-(2,4-difluorophenyl)-2,3-dihydro-5H-[1,4]oxazino[2,3,4-ij]quinazolin-5-one]	89.6
C=CC(=O)N1C[C@H](C)N(c2nc(=O)n3c4c(c(-c5ccc(F)cc5F)c(Cl)cc24)OC[C@@H]3COC2CCN(C)CC2)C[C@H]1C [Example 276, (3S)-7-((2S,5R)-4-acryloyl-2,5-dimethylpiperazin-1-yl)-9-chloro-10-(2,4-difluorophenyl)-3-(((1-methylpiperidin-4-yl)oxy)methyl)-2H-[1,4]oxazino[2,3,4-ij]quinazolin-5(3H)-one]	73.5
C=CC(=O)N1C[C@H](C)N(c2nc(=O)n3c4c(c(-c5ccc(F)cc5F)c(Cl)cc24)OC[C@@H]3COC[C@H]2CCCN2C)C[C@H]1C [Example 277, (3S)-7-((2S,5R)-4-acryloyl-2,5-dimethylpiperazin-1-yl)-9-chloro-10-(2,4-difluorophenyl)-3-((((R)-1-methylpyrrolidin-2-yl)methoxy)methyl)-2H-[1,4]oxazino[2,3,4-ij]quinazolin-5(3H)-one]	76.9
C=CC(=O)N1C[C@H](C)N(c2nc(=O)n3c4c(c(-c5ccc(F)cc5F)c(Cl)cc24)OC[C@H]3CCCN2CCC(C(=O)NC3CC3)CC2)C[C@H]1C [Example 278]	98.3
C=CC(=O)N1C[C@H](C)N(c2nc(=O)n3c4c(c(-c5ccc(F)cc5F)c(Cl)cc24)OC[C@H]3CCCN2CC(F)C2)C[C@H]1C [Example 279, (3R)-7-((2S,5R)-4-acryloyl-2,5-dimethylpiperazin-1-yl)-9-chloro-10-(2,4-difluorophenyl)-3-(3-(3-fluoroazetidin-1-yl)propyl)-2,3-dihydro-5H-[1,4]oxazino[2,3,4-ij]quinazolin-5-one]	97.5
C=CC(=O)N1C[C@H](C)N(c2nc(=O)n3c4c(c(-c5ccc(F)cc5F)c(Cl)cc24)OC[C@H]3CN2CCN(C)CC2=O)C[C@H]1C [Example 280, (3R)-7-((2S,5R)-4-acryloyl-2,5-dimethylpiperazin-1-yl)-9-chloro-10-(2,4-difluorophenyl)-3-((4-methyl-2-oxopiperazin-1-yl)methyl)-2H-[1,4]oxazino[2,3,4-ij]quinazolin-5(3H)-one]	57.5
C=CC(=O)N1C[C@H](C)N(c2nc(=O)n3c4c(c(-c5c(C)ccc6[nH]ncc56)c(Cl)cc24)OC[C@@H]3CCCN2C3CCC2COC3)C[C@H]1C [Example 281, (3S,10S)-3-(3-(3-oxa-8-azabicyclo[3.2.1]octan-8-yl)propyl)-7-((2S,5R)-4-acryloyl-2,5-dimethylpiperazin-1-yl)-9-chloro-10-(5-methyl-1H-indazol-4-yl)-2,3-dihydro-5H-[1,4]oxazino[2,3,4-ij]quinazolin-5-one]	0
C=CC(=O)N1C[C@H](C)N(c2nc(=O)n3c4c(c(-c5c(C)ccc6[nH]ncc56)c(Cl)cc24)OC[C@@H]3CCCN2C3CCC2COC3)C[C@H]1C [Example 282, (3S,10R)-3-(3-(3-oxa-8-azabicyclo[3.2.1]octan-8-yl)propyl)-7-((2S,5R)-4-acryloyl-2,5-dimethylpiperazin-1-yl)-9-chloro-10-(5-methyl-1H-indazol-4-yl)-2,3-dihydro-5H-[1,4]oxazino[2,3,4-ij]quinazolin-5-one]	86
C=CC(=O)N1C[C@H](C)N(c2nc(=O)n3c4c(c(-c5ccc(F)cc5F)c(Cl)cc24)OC[C@H]3CCCN2CCN(C)C(=O)C2)C[C@H]1C [Example 283, (3R)-7-((2S,5R)-4-acryloyl-2,5-dimethylpiperazin-1-yl)-9-chloro-10-(2,4-difluorophenyl)-3-(3-(4-methyl-3-oxopiperazin-1-yl)propyl)-2,3-dihydro-5H-[1,4]oxazino[2,3,4-ij]quinazolin-5-one]	92.4
C=CC(=O)N1C[C@H](C)N(c2nc(=O)n3c4c(c(-c5ccc(F)cc5F)c(Cl)cc24)OC[C@H]3CCCN(C)CC(F)(F)F)C[C@H]1C [Example 284, (3R)-7-((2S,5R)-4-acryloyl-2,5-dimethylpiperazin-1-yl)-9-chloro-10-(2,4-difluorophenyl)-3-(3-(methyl(2,2,2-trifluoroethyl)amino)propyl)-2,3-dihydro-5H-[1,4]oxazino[2,3,4-ij]quinazolin-5-one]	92.4
C=CC(=O)N1C[C@H](C)N(c2nc(=O)n3c4c(c(-c5ccc(F)cc5F)c(Cl)cc24)OC[C@H]3CN2C[C@H]3CC[C@@H](C2)N3C)C[C@H]1C [Example 285, (3R)-7-((2S,5R)-4-acryloyl-2,5-dimethylpiperazin-1-yl)-9-chloro-10-(2,4-difluorophenyl)-3-(((1R,5S)-8-methyl-3,8-diazabicyclo[3.2.1]octan-3-yl)methyl)-2H-[1,4]oxazino[2,3,4-ij]quinazolin-5(3H)-one]	86.2
C=CC(=O)N1C[C@H](C)N(c2nc(=O)n3c4c(c(-c5ccc(F)cc5F)c(Cl)cc24)OC[C@@H]3CN2C[C@H]3CC[C@@H](C2)N3C)C[C@H]1C [Example 286, (3S)-7-((2S,5R)-4-acryloyl-2,5-dimethylpiperazin-1-yl)-9-chloro-10-(2,4-difluorophenyl)-3-(((1R,5S)-8-methyl-3,8-diazabicyclo[3.2.1]octan-3-yl)methyl)-2H-[1,4]oxazino[2,3,4-ij]quinazolin-5(3H)-one]	91.6
C=CC(=O)N1C[C@H](C)N(c2nc(=O)n3c4c(c(-c5ccc(F)cc5F)c(Cl)cc24)OC[C@H]3COC[C@H]2CCCN2C)C[C@H]1C [Example 287, (3R)-7-((2S,5R)-4-acryloyl-2,5-dimethylpiperazin-1-yl)-9-chloro-10-(2,4-difluorophenyl)-3-((((R)-1-methylpyrrolidin-2-yl)methoxy)methyl)-2H-[1,4]oxazino[2,3,4-ij]quinazolin-5(3H)-one]	91.6
C=CC(=O)N1C[C@H](C)N(c2nc(=O)n3c4c(c(-c5ccc(F)cc5F)c(Cl)cc24)OC[C@H]3CC2CCN(C)CC2)C[C@H]1C [Example 288, (3R)-7-((2S,5R)-4-acryloyl-2,5-dimethylpiperazin-1-yl)-9-chloro-10-(2,4-difluorophenyl)-3-((1-methylpiperidin-4-yl)methyl)-2H-[1,4]oxazino[2,3,4-ij]quinazolin-5(3H)-one]	95.9
C=CC(=O)N1CCN(c2nc(=O)n3c4c(c(-c5ccc(F)cc5F)cc(CC#N)c24)OCC3)CC1 [Example 289, 2-(7-(4-acryloylpiperazin-1-yl)-10-(2,4-difluorophenyl)-5-oxo-2,3-dihydro-5H-[1,4]oxazino[2,3,4-ij]quinazolin-8-yl)acetonitrile]	13.5
C=CC(=O)N1C[C@H](C)N(c2nc(=O)n3c4c(c(-c5ccc(F)cc5F)c(Cl)cc24)OC[C@@H]3CN2C[C@H]3CC[C@@H](C2)N3C2COC2)C[C@H]1C [Example 290, (3S)-7-((2S,5R)-4-acryloyl-2,5-dimethylpiperazin-1-yl)-9-chloro-10-(2,4-difluorophenyl)-3-(((1R,5S)-8-(oxetan-3-yl)-3,8-diazabicyclo[3.2.1]octan-3-yl)methyl)-2H-[1,4]oxazino[2,3,4-ij]quinazolin-5(3H)-one]	92.6
C=CC(=O)N1C[C@H](C)N(c2nc(=O)n3c4c(c(-c5ccc(F)cc5F)c(Cl)cc24)OC[C@H]3CN2C[C@H]3CC[C@@H](C2)N3C2COC2)C[C@H]1C [Example 291, (3R)-7-((2S,5R)-4-acryloyl-2,5-dimethylpiperazin-1-yl)-9-chloro-10-(2,4-difluorophenyl)-3-(((1R,5S)-8-(oxetan-3-yl)-3,8-diazabicyclo[3.2.1]octan-3-yl)methyl)-2H-[1,4]oxazino[2,3,4-ij]quinazolin-5(3H)-one]	88.8
C=CC(=O)N1C[C@H](C)N(c2nc(=O)n3c4c(c(-c5ccc(F)cc5F)c(Cl)cc24)OC[C@H]3CC2(O)CCN(C)CC2)C[C@H]1C [Example 293, (3R)-7-((2S,5R)-4-acryloyl-2,5-dimethylpiperazin-1-yl)-9-chloro-10-(2,4-difluorophenyl)-3-((4-hydroxy-1-methylpiperidin-4-yl)methyl)-2H-[1,4]oxazino[2,3,4-ij]quinazolin-5(3H)-one]	82.4
C=CC(=O)N1C[C@H](C)N(c2nc(=O)n3c4c(c(-c5ccc(F)cc5F)c(Cl)cc24)OC[C@@H]3COC[C@@H]2CCCN2C)C[C@H]1C [Example 296, (3S)-7-((2S,5R)-4-acryloyl-2,5-dimethylpiperazin-1-yl)-9-chloro-10-(2,4-difluorophenyl)-3-((((S)-1-methylpyrrolidin-2-yl)methoxy)methyl)-2,3-dihydro-5H-[1,4]oxazino[2,3,4-ij]quinazolin-5-one]	79.8
